In patent publication US8591908B2, “Immunogen for preparation of therapeutic vaccines or drugs for treatment of hepatitis B and the producing method and use thereof” (Institute of Immunology, PLA, priority 2002, dated 2013):
Ends that are not written are not given here. * marks the point of attachment. Palmitoyl = CCCCCCCCCCCCCCCC(=O)*

How the values were obtained:
[1] = test system: T2 cells, E6 cells, and HepG2.2.15 cells; assay: HBV-specific effective CTL from hepatitis patients' PBMC, cytotoxicity; assay type: cell-based, human
Method: Acute and chronic hepatitis blank control groups, acute hepatitis+test drug group and chronic hepatitis+test drug group were included. The PBMC's from the patients were cultured in vitro and stimulated repetitively to generate antigen-specific effective CTL cells and amplified their number. Then they were used to cytotoxically kill peptide antigen pre-coated T2 cells, E6 cells, and HepG2.2.15 cells.

[2] = test system: HBV DNA in HBV transgenic mice; assay: HBV transgenic mice: HBV DNA in serum, quantitative PCR; assay type: in vivo; conditions: 10th, 20th, 30th day after three immunizations, 10-1000 U/mouse
Method: (§1) The levels of cytokines such as IFN-γ, IL-4, etc. in supernatant were measured by the ELISA method, and the activity of the test drug (CH3(CH2)14COKSSQYIKANSKFIGITEAAASIVSPFIPLLGGGDPRVRGLYFPA) (SEQ ID NO:5) for inducing the differentiation of T cells into Th1/Th2 type was analyzed. […] The expression frequency of IFN-γ secreting cells in peripheral blood lymphocytes was measured by the ELI-SPOT method in said supernatant. […] On the 10th, 20th and 30th day after the end of the three immunizations, bloods were removed, serum isolated, and the contents of HBsAg and HBV-DNA in the serum were separately measured by the ELISA method and quantitative PCR method.

Balb/c mice = assay: Th1 activation, serum Th1/Th2 cytokines by ELISA; assay type: in vivo; conditions: serum 3 weeks after immunization
Method: Balb/c mice (both male and female) of 2-3 Months old were divided into 8 groups, and were immunized with εPA44 at both postpede palmas once a week for three times at different doses: 0.001 nmol, 0.01 nmol, 0.1 nmol, 0.5 nmol, 1 nmol, 10 nmol, 20 nmol, and 40 nmol respectively. 3 weeks after immunization, the mice were bled by removing their eyeballs and serums were collected. Th1/Th2 cytokines were tested by ELISA.

[3] = Isoelectric point, ampholyte pH gradient isoelectric focusing; assay type: physicochemical; conditions: 8N urea, TritonX-114
Method: Supported ampholyte pH gradient isoelectric focusing was employed. Pretreatment: 8N urea and 2% TritonX-114. Urea at the corresponding concentration and 0.5% TritonX-114 were also added to polyacrylamide gel. Conventional Coomassie brilliant blue was used for dyeing.

HBV-DNA transgenic mice = assay: HBV transgenic mice: IFN-γ secreting cells, ELI-SPOT; assay type: in vivo; conditions: 30th day after end of immunization
Method: as §1
The expression frequency of IFN-γ secreting cells in peripheral blood lymphocytes was measured by the ELI-SPOT method.

[4] = test system: human peripheral blood mononuclear cells (PBMCs); assay: Proliferation of human PBMCs from normal persons, 3H-TdR; assay type: cell-based; conditions: 0.1 μg, 1 μg and 10 μg/ml with IL-2
Method: Anticoagulant peripheral blood was collected from normal persons under sterile conditions, PBMCs were isolated by conventional Ficoll-Hypaque density gradient centrifugation and were cultured in RPMI1640 culture media (containing 10% calf serum, 100 u/ml penicillin-streptomycin, L-glutamine) in vitro on 24-well culture plates at the cell concentration of 10^6/ml. Blank control group, test group and Pre-S(2) control group were included, to which IL-2 (30 IU/ml) and test drug (0.1 μg/ml, 1 μg/ml, 10 μg/ml) were added. After the cells were cultured for 6 days, IL-2 and the test drug were added at the same dose to stimulate the cells again, and then 3H-TdR (1 uCi/ml) was added. After the cells were further cultured for 18 hours, they were collected and tested by liquid scintillation.

[5] = test system: peripheral blood mononuclear lymphocytes of HLA-A2+ healthy person; assay: FIG. 2: induction of lymphocyte proliferation, 3H-TdR; assay type: cell-based, human
From the text: FIG. 2 indicated the effect of inducing the proliferation of lymphocytes.

[6] = test system: hepatitis B surface antigen (HBsAg) in HBV transgenic mice; assay: HBV transgenic mice: HBsAg in serum, ELISA; assay type: in vivo; conditions: 10th, 20th, 30th day after three immunizations, 10-1000 U/mouse
Method: as §1

[7] = Solubility in different solution systems; assay type: physicochemical
From the text: (§2) εPA44 was soluble and stable in DMSO, but poorly soluble and stable in other solutions (see Table 5). Thus, DMSO was used as the mobile phase for SEC.

[8] = pI stated in the formulation description; assay type: physicochemical; conditions: stated without method in formulation example 39
[9] = Stability in different solution systems (RP-HPLC); assay type: physicochemical
From the text: as §2

[10] = 50% Ethanol-10 mmol/L phosphoric acid

Substance: K(Palmitoyl)SSQYIKANSKFIGITEAAAFLPSDFFPSVGGGDPRVRGLYFPA-OH [SEQ ID NO:1, CH3(CH2)14COKSSQYIKANSKFIGITEAAAFLPSDFFPSVGGGDPRVRGLYFPA]
- target cell-specific lysis rate ([1]; PBMCs from acute hepatitis patient in convalescent phase): up to 68.6%
- target cell-specific lysis rate ([1]; PBMCs from chronic hepatitis patient): up to 42.6%
- specific killing of target cells ([1]; PBMCs of hepatitis patients): specifically kill aforesaid three target cell lines
- HBV-DNA in the serum (copy number, replication level) [2]: obviously decreased in a manner of dose-dependence and time-dependence
- dose inducing the generation of IFN-γ and IL-2 (Balb/c mice): 0.01 nmol
- isoelectric point [3]: 7.2 pH
- expression frequency of IFN-γ secreting cells in peripheral blood lymphocytes (HBV-DNA transgenic mice; 10-1000 U/mouse): increased with the increase of the immunization dose
- highest expression frequency of IFN-γ secreting cells (HBV-DNA transgenic mice; IFN-α2b at 15000 U/mouse): 3660 IFN-γ secreting cells/10^6 PBMC
- proliferation of human PBMCs [4]: stimulated the proliferation of human PBMCs in a manner of dose dependence
- minimal effective dose ([5]; lymphocyte proliferation): 0.1 ng
- range with dose-effect dependence ([5]; lymphocyte proliferation): 0.1 to 10 ng
- induction of the proliferation of lymphocytes ([5]; with IL-2, γ-count after 3H-TdR): significantly induce the proliferation of lymphocytes
- HBsAg in the serum [6]: decreased in a manner of dose-dependence and time-dependence
- solubility ([7]; 0.1 mol/L PB (pH 6.8)): 0.01 mg/mL
- solubility ([7]; 2% Tween80-0.1 mol/L PB(pH 6.8)): 0.08 mg/mL
- solubility ([7]; 50% Acetonitrile-0.1% TFA): 1.67 mg/mL
- solubility ([7]; 50% DMSO): 2.53 mg/mL
- solubility ([7]; 50% Ethanol-10 mmol/L HCl): 2.48 mg/mL
- solubility [7, 10]: 2.43 mg/mL
- solubility ([7]; 50% Methanol-0.1% TFA): 1.54 mg/mL
- solubility ([7]; DMSO): 11.7 mg/mL
- pI [8]: 8.1
- Stability ([9]; 50% Acetonitrile-0.1% TFA): Unstable
- Stability ([9]; 50% Ethanol-10 mmol/L HCl): Unstable
- Stability [9, 10]: Unstable
- Stability ([9]; DMSO): Stable*
